# Test results as given in patent US11655239B2 (SHANGHAI INSTITUTE OF MATERIAL MEDICA, CHINESE ACADEMY OF …, priority 2019, dated 2023).
# What was measured:
# [1] = target: DDR2 (Homo sapiens (Human), UniProt Q16832); experiment: DDR2 enzyme activity test (ELISA); assay type: biochemical; conditions: read-out: DDR2 IC50
# Protocol: The optical rotation and the inhibitory activity against DDR2 enzyme of the compounds S11-A and S11-B obtained by the resolution in Example 12, and the chirally synthesized compounds S11-A′ and S11-B′ in Example 13 were tested (referred to the operation in Effect example 1), and the results are shown in Table 3 below:
# Detection method: Enzyme-linked immunosorbent assay (ELISA)
# Test receptor tyrosine kinase: DDR2
# The kinase used in the experiment was obtained by our laboratory using the insect baculovirus expression system to express and purify the recombinant protein containing the protein kinase region; polyglutamic acid-tyrosine peptide segment [Poly(Glu, Tyr) 4:1] and sodium vanadate were purchased from Sigma; the anti-phosphorylated monoclonal antibody PY99 was purchased from Santa Cruz; horseradish peroxidase labeled goat anti-murine secondary antibody was purchased from Calbiochem; ATP and OPD were purchased from Sangon Biotech (Shanghai) Co., Ltd.; the remaining reagents were purchased from Sinopharm Chemical Reagent Co., Ltd. The reaction ELISA plate (#2592) was purchased from Corning. The full-wavelength microplate reader for experiment reading was a product of Molecular Device, model: SpectraMax 190; the experimental water was distilled water produced by Sinopharm Group.
# The compound was centrifuged at 12,000 g for 5 min, and DMSO was added to prepare a 10^-2M stock solution, which was vortexed evenly, then sonicated for 10 min and stored at −40° C. for later use. During the test, the compound was diluted with DMSO from the stock solution to 100 times the test concentration (the DMSO concentration in the system was 1%).
# (§1) 1) Enzyme reaction substrate Poly(Glu, Tyr) 4:1 was diluted to 20 μg/mL with potassium-free PBS (10 mM sodium phosphate buffer, 150 mM NaCl, pH 7.2-7.4), and the microtiter plate was coated with 125 μL/well and placed at 37° C. for 12-16 hours of reaction. The liquid in the well was discard. The plate was washed three times with T-PBS (potassium-free PBS containing 0.1% Tween-20, 200 μL/well), 5 minutes each time. The ELISA plate was dried in an oven at 37° C. for 1 to 2 hours.
# (§2) 2) Reaction buffer (50 mM HEPES pH 7.4, 50 mM MgCl2, 0.5 mM MnCl2, 0.2 mM Na3VO4, 1 mM DTT) diluted ATP solution (49 μL) was added to each well, 1 μL of the compound to be tested was added to each well, and then 50 μL of DDR2 kinase domain recombinant protein diluted in the reaction buffer was added to start the reaction. Two control wells without ATP were set in each experiment. The plate placed on a shaker (100 rpm) at 37° C. for 1 hour of reaction. The liquid in the well was discarded and the plate was washed three times with T-PBS.
# (§3) 3) Antibody PY99 dilution solution (the antibody was diluted 1:500 with T-PBS containing BSA 5 mg/mL) was added at 100 μL/well, and shaken on a shaker at 37° C. for 0.5 hour of reaction. The liquid in the well was discarded and the plate was washed three times with T-PBS.
# (§4) 4) Horseradish peroxidase labeled goat anti-murine secondary antibody dilution solution (the antibody is diluted 1:2000 with T-PBS containing BSA 5 mg/ml) was added at 100 μL/well, and shaken on a shaker at 37° C. for 0.5 hour of reaction. The liquid in the well was discarded and the plate was washed three times with T-PBS.
# (§5) 5) 2 mg/ml of OPD color developing solution [diluted with 0.1 M citric acid-sodium citrate buffer (pH=5.4) containing 0.03% H2O2] was added at 100 μL/well and reacted for 1 to 10 minutes at 25° C. in the dark.
# (§6) 6) 2M H2SO4 was added at 50 μL/well to stop the reaction, and a tunable wavelength microplate reader VERSAmax was used for reading at a wavelength of 490 nm.
# The IC50 value was obtained by four-parameter regression using the software that came with the microplate reader.
# [2] = system: kinases; experiment: Enzyme selectivity test, kinase panel overall; assay type: biochemical; conditions: kinase panel of Table 5
# Excerpt: Except that the enzyme was different, other test methods and conditions were the same as the DDR2 enzyme activity test method in Effect example 1.
# [3] = target: Abl (Homo sapiens (Human), UniProt P00519); experiment: Enzyme selectivity test (ELISA), Abl; assay type: biochemical
# Sequence of Abl (P00519 whole entry, species assumed): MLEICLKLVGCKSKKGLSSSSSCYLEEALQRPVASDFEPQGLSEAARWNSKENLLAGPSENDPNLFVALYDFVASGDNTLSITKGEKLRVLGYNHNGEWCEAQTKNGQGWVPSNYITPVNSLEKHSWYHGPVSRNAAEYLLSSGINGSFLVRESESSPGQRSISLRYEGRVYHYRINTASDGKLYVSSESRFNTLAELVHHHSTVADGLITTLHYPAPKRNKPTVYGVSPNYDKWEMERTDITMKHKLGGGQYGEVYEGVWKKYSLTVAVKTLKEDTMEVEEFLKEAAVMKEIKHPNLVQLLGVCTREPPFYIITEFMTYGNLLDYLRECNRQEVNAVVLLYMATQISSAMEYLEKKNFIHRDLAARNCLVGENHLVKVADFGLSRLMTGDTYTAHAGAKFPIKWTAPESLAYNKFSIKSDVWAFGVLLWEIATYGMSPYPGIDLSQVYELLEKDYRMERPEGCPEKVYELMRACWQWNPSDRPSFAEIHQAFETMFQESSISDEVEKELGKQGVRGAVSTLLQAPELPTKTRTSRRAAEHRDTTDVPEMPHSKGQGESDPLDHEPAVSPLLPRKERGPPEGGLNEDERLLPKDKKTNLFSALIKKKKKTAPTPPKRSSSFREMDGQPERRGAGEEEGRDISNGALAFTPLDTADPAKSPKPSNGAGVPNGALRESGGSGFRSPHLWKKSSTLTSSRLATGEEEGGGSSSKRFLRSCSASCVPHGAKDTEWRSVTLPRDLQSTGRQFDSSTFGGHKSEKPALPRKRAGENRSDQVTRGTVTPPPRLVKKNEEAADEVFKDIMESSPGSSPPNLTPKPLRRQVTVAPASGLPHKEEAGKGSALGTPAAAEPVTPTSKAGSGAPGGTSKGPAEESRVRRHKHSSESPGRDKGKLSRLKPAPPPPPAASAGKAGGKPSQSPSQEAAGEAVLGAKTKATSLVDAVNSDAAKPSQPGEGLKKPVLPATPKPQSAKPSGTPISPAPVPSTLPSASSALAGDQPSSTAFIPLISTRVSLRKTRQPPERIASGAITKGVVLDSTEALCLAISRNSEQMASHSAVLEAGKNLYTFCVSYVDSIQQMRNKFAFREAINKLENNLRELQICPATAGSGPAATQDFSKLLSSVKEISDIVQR
# Protocol: as §1, §2, §3, §4, §5, §6
# (§7) The IC50 value was obtained by four-parameter regression using the software that came with the microplate reader. […]
# [4] = system: primary lung fibroblasts; experiment: Activation of myofibroblasts in primary lung fibroblasts isolated from mice; assay type: cell-based, mouse; conditions: primary lung fibroblasts isolated from mice of the experimental groups
# [5] = target: Flt-3 (Homo sapiens (Human), UniProt P36888); experiment: Enzyme selectivity test (ELISA), Flt-3; assay type: biochemical
# Sequence of Flt-3 (P36888 27-993, species assumed): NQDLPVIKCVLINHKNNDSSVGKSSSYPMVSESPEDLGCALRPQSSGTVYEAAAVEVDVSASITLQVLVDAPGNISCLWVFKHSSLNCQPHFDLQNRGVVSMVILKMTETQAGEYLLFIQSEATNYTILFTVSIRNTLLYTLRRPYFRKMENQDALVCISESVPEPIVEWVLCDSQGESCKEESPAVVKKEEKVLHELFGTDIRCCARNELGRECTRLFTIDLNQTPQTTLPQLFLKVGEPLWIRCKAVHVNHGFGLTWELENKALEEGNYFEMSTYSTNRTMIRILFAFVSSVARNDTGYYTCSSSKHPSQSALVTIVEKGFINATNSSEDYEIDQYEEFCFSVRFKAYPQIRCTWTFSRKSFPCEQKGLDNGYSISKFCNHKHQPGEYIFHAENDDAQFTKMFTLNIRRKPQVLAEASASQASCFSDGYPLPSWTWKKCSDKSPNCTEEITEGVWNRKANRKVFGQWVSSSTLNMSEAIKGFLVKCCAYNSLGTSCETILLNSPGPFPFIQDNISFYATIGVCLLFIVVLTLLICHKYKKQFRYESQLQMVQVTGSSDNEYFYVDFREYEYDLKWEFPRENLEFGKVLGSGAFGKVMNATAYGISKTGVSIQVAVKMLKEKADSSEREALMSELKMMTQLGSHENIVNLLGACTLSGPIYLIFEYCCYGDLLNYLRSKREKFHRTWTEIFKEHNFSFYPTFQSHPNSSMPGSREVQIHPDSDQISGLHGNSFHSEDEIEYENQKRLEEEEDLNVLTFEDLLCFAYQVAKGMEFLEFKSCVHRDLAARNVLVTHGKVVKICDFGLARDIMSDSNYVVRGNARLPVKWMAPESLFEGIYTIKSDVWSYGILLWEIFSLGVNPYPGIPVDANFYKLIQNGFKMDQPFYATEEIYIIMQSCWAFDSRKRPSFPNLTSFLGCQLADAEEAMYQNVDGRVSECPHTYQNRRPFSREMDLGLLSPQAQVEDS
# Protocol: as §1, §2, §3, §4, §5, §6, §7
# [6] = target: IGF-1R (Homo sapiens (Human), UniProt P08069); experiment: Enzyme selectivity test (ELISA), IGF-1R; assay type: biochemical
# Sequence of IGF-1R (P08069 31-1367, species assumed): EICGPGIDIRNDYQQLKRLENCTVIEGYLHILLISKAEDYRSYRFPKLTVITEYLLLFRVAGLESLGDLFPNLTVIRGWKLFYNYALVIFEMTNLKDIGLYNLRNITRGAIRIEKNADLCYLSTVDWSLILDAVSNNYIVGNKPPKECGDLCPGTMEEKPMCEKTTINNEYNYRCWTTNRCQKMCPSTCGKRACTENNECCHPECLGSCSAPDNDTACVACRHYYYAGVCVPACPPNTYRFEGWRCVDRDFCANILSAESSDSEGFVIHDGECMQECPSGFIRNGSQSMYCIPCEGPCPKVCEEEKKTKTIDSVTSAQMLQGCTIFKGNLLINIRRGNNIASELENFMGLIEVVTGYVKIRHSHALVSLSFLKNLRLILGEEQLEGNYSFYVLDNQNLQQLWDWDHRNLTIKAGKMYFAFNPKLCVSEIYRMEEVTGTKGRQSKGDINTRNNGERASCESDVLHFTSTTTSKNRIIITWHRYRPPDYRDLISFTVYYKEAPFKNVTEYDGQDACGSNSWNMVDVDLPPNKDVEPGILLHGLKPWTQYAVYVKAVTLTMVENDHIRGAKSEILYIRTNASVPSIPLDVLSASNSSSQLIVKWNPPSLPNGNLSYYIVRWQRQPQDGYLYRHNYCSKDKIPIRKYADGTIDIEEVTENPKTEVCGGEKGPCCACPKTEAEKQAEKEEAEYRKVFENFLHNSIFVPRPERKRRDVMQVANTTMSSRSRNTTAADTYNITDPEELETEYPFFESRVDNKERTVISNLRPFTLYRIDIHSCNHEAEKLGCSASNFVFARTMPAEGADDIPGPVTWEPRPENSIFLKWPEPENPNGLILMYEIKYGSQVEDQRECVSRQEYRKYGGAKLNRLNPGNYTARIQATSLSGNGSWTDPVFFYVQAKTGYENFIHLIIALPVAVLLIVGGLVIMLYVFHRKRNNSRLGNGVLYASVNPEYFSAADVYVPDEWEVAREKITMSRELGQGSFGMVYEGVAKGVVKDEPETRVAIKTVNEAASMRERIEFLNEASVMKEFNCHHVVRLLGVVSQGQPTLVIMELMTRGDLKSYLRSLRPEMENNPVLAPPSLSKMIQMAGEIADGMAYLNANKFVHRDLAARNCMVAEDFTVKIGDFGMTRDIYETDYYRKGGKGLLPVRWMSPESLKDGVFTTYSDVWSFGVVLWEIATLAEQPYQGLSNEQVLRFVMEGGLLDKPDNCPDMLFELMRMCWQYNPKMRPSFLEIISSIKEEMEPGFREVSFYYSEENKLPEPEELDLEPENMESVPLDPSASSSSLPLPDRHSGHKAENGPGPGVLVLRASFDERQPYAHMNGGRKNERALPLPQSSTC
# Protocol: as §1, §2, §3, §4, §5, §6, §7
# [7] = target: PDGFR-α (Homo sapiens (Human), UniProt P16234); experiment: Enzyme selectivity test (ELISA), PDGFR-α; assay type: biochemical
# Sequence of PDGFR-α (P16234 24-1089, species assumed): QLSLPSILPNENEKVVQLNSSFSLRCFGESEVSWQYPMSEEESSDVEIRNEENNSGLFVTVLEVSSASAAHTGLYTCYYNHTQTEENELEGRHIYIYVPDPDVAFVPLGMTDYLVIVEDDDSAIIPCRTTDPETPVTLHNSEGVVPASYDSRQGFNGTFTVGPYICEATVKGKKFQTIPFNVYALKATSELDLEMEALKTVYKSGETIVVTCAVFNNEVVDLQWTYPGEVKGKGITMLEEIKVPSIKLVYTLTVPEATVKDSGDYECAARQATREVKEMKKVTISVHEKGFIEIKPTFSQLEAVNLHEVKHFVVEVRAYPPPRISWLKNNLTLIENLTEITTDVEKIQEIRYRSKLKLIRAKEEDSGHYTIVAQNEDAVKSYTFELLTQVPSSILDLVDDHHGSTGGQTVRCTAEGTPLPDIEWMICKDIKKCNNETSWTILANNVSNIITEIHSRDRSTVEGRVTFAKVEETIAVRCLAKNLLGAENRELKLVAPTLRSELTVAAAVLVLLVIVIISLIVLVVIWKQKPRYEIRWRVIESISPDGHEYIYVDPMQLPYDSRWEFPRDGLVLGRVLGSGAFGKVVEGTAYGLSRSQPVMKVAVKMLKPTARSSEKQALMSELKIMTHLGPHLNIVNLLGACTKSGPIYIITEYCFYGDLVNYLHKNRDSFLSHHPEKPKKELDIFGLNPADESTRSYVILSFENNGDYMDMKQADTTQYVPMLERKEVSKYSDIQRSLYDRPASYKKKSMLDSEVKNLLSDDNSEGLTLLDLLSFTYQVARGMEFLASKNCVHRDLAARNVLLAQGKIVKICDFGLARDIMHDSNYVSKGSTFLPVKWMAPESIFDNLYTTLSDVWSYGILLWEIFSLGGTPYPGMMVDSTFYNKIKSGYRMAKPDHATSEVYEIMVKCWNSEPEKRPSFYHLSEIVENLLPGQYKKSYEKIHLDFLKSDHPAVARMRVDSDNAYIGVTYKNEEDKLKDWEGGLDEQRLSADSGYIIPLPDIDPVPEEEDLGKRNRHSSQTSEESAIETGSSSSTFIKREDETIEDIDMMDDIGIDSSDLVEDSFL
# Protocol: as §1, §2, §3, §4, §5, §6, §7
# [8] = system: mouse model of BLM-induced lung injury; experiment: mRNA levels of inflammatory cytokines in lung tissue (qRT-PCR); assay type: in vivo; conditions: mice, 30, 60, 90 mg/kg
# Protocol: The experiment used qRT-PCR technology to determine the mRNA levels of pro-inflammatory cytokines in lung tissue. Real-time quantitative PCR was used to detect the mRNA levels of TNF-α, IL-6, IL-1β, TGF-β and others.
# About 30 mg of cryopreserved lung tissue was weighed and homogenized and lysed by adding 200 μL of Trizol (Takara, 9109 #). The fluid after the lysis in the well was collected by the RNA sterilization-grade pipette tip and transferred to the corresponding sterile EP tube. […] of chloroform was added, shaken vigorously for 30 sec, and centrifuged for 15 minutes in a centrifuge at 4° C. at 12000 rpm. The upper aqueous layer was transferred to a new EP tube, an equal volume of isopropanol was used to precipitate the RNA in the aqueous phase, and the tube was allowed to stand at −20° C. for more than 1 hr. And then the tube was centrifuged for 15 min at 4° C. at 12000 rpm, and the supernatant was discarded. 75% ethanol was added to wash the RNA pellet, and then the tube was centrifuged for 15 min at 4° C. at 12000 rpm, and the supernatant was discarded. The tube was placed at room temperature for 10-20 min to dry the RNA pellet. 25-200 μL of RNase-free water was added for dissolution and stored at −80° C.
# PrimeScript™ RT Master Mix (Takara, RR036A) was selected for mRNA reverse transcription. Please refer to the instructions for the system. […]
# Sequence of DDR2 (Q16832 563-849): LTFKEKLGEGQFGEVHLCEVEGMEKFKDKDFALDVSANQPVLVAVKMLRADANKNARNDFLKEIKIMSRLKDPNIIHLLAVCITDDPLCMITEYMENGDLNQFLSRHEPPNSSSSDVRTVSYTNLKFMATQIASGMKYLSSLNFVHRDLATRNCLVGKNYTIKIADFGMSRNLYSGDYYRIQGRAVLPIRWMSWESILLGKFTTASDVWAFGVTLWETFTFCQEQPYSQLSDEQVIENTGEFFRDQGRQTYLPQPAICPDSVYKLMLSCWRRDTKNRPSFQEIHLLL
smiles,measurement,setting,value
"O=C(Nc1cccc(C(F)(F)F)c1)c1ccc(C2CC2)c(-c2ccc3nc(Nc4cnn(C5CC5)c4)ncc3c2)c1 [Compound S15, 4-cyclopropyl-3-(2-((1-cyclopropyl-1H-pyrazol-4-yl)amino)quinazolin-6-yl)-N-(3-(trifluoromethyl)phenyl)benzamide]",IC50,[1],6.1 ± 0.5 nM
same,selectivity for kinases,[2],good selectivity
same,IC50,[3],< 10 nM
same,activation of myofibroblasts,[4],inhibit the activation of myofibroblasts in a dose-dependent manner
same,IC50,[5],> 1000 nM
same,IC50,[6],> 1000 nM
same,IC50,[7],> 1000 nM
same,"mRNA levels of pro-inflammatory cytokines TNF-α, IL-1β and IL-6 in lung tissue",[8],significantly reduce the levels of pro-inflammatory cytokines in a dose-dependent manner
